{
  "source": "patent US9169254B2",
  "about": "“Spiroimidazolone derivative” (Chugai Seiyaku Kabushiki Kaisha, priority 2009, dated 2015)",
  "data": [
    {"target": "T1, human PTH1 receptor (Homo sapiens, UniProt Q03431)", "T1 sequence (Q03431 27-593)": "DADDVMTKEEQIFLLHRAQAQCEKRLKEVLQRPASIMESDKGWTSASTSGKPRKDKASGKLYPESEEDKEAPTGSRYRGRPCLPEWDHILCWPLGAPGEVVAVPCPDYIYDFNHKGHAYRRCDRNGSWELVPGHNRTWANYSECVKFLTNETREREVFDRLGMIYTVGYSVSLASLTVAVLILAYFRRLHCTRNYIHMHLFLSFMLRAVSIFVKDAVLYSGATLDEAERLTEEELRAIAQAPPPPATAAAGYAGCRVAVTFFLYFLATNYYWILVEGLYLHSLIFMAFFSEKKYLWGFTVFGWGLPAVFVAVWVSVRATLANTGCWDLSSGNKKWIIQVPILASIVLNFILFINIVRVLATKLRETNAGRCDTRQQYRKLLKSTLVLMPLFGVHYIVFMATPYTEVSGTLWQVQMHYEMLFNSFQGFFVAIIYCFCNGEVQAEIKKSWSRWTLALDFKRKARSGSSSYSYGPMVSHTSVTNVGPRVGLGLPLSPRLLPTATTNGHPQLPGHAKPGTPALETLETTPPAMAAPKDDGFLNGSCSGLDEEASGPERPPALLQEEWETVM", "assay": "In vitro cAMP signal activity in HKRK-B7 cells (LLC-PK1 cells overexpressing the human PTH1 receptor)", "format": "cell-based", "conditions": "HKRK-B7 cells; compound at 1×10^−3 M; cAMP produced as percentage of that produced by hPTH(1-34) at 100 nM", "units": {"cAMP production activity (%)": "%"}, "values": [
      {"smiles": "CN(C)C(=O)c1ccc(CCCS(=O)(=O)N2CCC3(CC2)N=C(C2CCCCC2)NC3=O)cc1", "note": "[Compound 324, 4-[3-(2-cyclohexyl-4-oxo-1,3,8-triaza-spiro[4.5]dec-1-ene-8-sulfonyl)-propyl]-N,N-dimethyl-benzamide]", "cAMP production activity (%)": 30},
      {"smiles": "CC(=O)N(C)c1cc(C)c(CCS(=O)(=O)N2CCC3(CC2)N=C(CCCCCCC(F)(F)F)NC3=O)c(C)c1", "note": "[Compound 1044, N-(3,5-Dimethyl-4-{2-[4-oxo-2-(7,7,7-trifluoro-heptyl)-1,3,8-triaza-spiro[4.5]dec-1-ene-8-sulfonyl]-ethyl}-phenyl)-N-methyl-acetamide]", "cAMP production activity (%)": 86},
      {"smiles": "Cc1cc(N2C(=O)CCC2CO)ccc1/C=C/S(=O)(=O)N1CCC2(CC1)N=C(c1cccc(C(F)(F)F)c1)NC2=O", "note": "(stereo in doubt) [Compound 221, 8-{(E)-2-[4-((R)-2-hydroxymethyl-5-oxo-pyrrolidin-1-yl)-2-methyl-phenyl]-ethenesulfonyl}-2-(3-trifluoromethyl-phenyl)-1,3,8-triaza-spiro[4.5]dec-1-en-4-one]", "cAMP production activity (%)": 103},
      {"smiles": "Cc1cc(N(C)c2ncc[nH]2)cc(C)c1/C=C/S(=O)(=O)N1CCC2(CC1)N=C(C1CCC(C)CC1)NC2=O", "note": "(stereo not drawn) [Compound 586, 8-((E)-2-{4-[(1H-imidazol-2-yl)-methyl-amino]-2,6-dimethyl-phenyl}-ethenesulfonyl)-2-(4-methyl-cyclohexyl)-1,3,8-triaza-spiro[4.5]dec-1-en-4-one]", "cAMP production activity (%)": 82},
      {"smiles": "Cc1cc(N(C)C(N)=O)cc(C)c1/C=C/S(=O)(=O)N1CCC2(CC1)N=C(CCCCCCCS(C)(=O)=O)NC2=O", "note": "[Compound 1319, 1-(4-{(E)-2-[2-(7-methanesulfonyl-heptyl)-4-oxo-1,3,8-triaza-spiro[4.5]dec-1-ene-8-sulfonyl]-vinyl}-3,5-dimethyl-phenyl)-1-methyl-urea]", "cAMP production activity (%)": 5.8},
      {"smiles": "CC(=O)Nc1ccc(CCS(=O)(=O)N2CCC3(CC2)N=C(Nc2ccc(C(F)(F)F)cc2)NC3=O)c(C)c1", "note": "[Compound 1401, N-(3-Methyl-4-{2-[4-oxo-2-(4-trifluoromethyl-phenylamino)-1,3,8-triaza-spiro[4.5]dec-1-ene-8-sulfonyl]-ethyl}-phenyl)-acetamide]", "cAMP production activity (%)": 73},
      {"smiles": "O=C1NC(C2CCCCC2)=NC12CCN(S(=O)(=O)/C=C/c1cccc3cc[nH]c13)CC2", "note": "[Compound 479, 2-cyclohexyl-8-[(E)-2-(1H-indol-7-yl)-ethenesulfonyl]-1,3,8-triaza-spiro[4.5]dec-1-en-4-one]", "cAMP production activity (%)": 15},
      {"smiles": "Cc1cc(C(=O)N(C)C)ccc1CCS(=O)(=O)N1CCC2(CC1)N=C(c1cccc(-c3cccnc3)c1)NC2=O", "note": "[Compound 173, 3,N,N-trimethyl-4-{2-[4-oxo-2-(3-pyridin-3-yl-phenyl)-1,3,8-triaza-spiro[4.5]dec-1-ene-8-sulfonyl]-ethyl}-benzamide]", "cAMP production activity (%)": 71},
      {"smiles": "CCOc1cc(NC(C)=O)ccc1CCS(=O)(=O)N1CCC2(CC1)N=C(C1CCC(C)CC1)NC2=O", "note": "(stereo not drawn) [Compound 751, N-(3-ethoxy-4-{2-[2-(4-methyl-cyclohexyl)-4-oxo-1,3,8-triaza-spiro[4.5]dec-1-ene-8-sulfonyl]-ethyl}-phenyl)-acetamide]", "cAMP production activity (%)": 83},
      {"smiles": "Cc1cc(NCCO)ccc1CCS(=O)(=O)N1CCC2(CC1)N=C(c1cccc(OC(F)(F)F)c1)NC2=O", "note": "[Compound 159, 8-{2-[4-(2-Hydroxy-ethylamino)-2-methyl-phenyl]-ethanesulfonyl}-2-(3-trifluoromethoxy-phenyl)-1,3,8-triaza-spiro[4.5]dec-1-en-4-one]", "cAMP production activity (%)": 96},
      {"smiles": "Cc1cc(C(=O)N2CCN(S(C)(=O)=O)CC2)ccc1CCS(=O)(=O)N1CCC2(CC1)N=C(c1cccc(C(F)(F)F)c1)NC2=O", "note": "[Compound 352, 8-{2-[4-(4-Methanesulfonyl-piperazine-1-carbonyl)-2-methyl-phenyl]-ethanesulfonyl}-2-(3-trifluoromethyl-phenyl)-1,3,8-triaza-spiro[4.5]dec-1-en-4-one]", "cAMP production activity (%)": 19},
      {"smiles": "CC(=O)NNC(=O)c1cc(C)c(/C=C/S(=O)(=O)N2CCC3(CC2)N=C(C2CCC(CCC(F)(F)F)CC2)NC3=O)c(C)c1", "note": "(stereo not drawn) [Compound 552, 3,5-dimethyl-4-((E)-2-{4-oxo-2-[4-(3,3,3-trifluoro-propyl)-cyclohexyl]-1,3,8-triaza-spiro[4.5]dec-1-ene-8-sulfonyl}-vinyl)-benzoic acid N′-acetyl-hydrazide]", "cAMP production activity (%)": 64},
      {"smiles": "Cc1cc(N(C)C(N)=O)cc(C)c1CC[S@TB4](=O)(=O)N1CCC2(CC1)N=C(c1cccc(-c3cccc(-c4ccccc4)c3)c1)NC2=O", "note": "[Compound 1155, 1-{3,5-dimethyl-4-[2-(4-oxo-2-[1,1′;3′,1″]terphenyl-3-yl-1,3,8-triaza-spiro[4.5]dec-1-ene-8-sulfonyl)-ethyl]-phenyl}-1-methyl-urea]", "cAMP production activity (%)": 83},
      {"smiles": "O=C1NC(C2CCC(CCC(F)(F)F)CC2)=NC12CCN(S(=O)(=O)CCc1cccc3c1ccn3C[C@@H](O)CO)CC2", "note": "(stereo partly drawn) [Compound 867, 8-{2-[1-((R)-2,3-dihydroxy-propyl)-1H-indol-4-yl]-ethanesulfonyl}-2-[4-(3,3,3-trifluoro-propyl)-cyclohexyl]-1,3,8-triaza-spiro[4.5]dec-1-en-4-one]", "cAMP production activity (%)": 71},
      {"smiles": "O=C1NC(C2CCCCC2)=NC12CCN(S(=O)(=O)c1ccc3c(c1)OCCO3)CC2", "note": "[Compound 60, 2-cyclohexyl-8-(2,3-dihydro-benzo[1,4]dioxine-6-sulfonyl)-1,3,8-triaza-spiro[4.5]dec-1-en-4-one]", "cAMP production activity (%)": 34},
      {"smiles": "C=CCCCCC(=O)N(C)c1cc(C)c(CCS(=O)(=O)N2CCC3(CC2)N=C(CCCCC=C)NC3=O)c(C)c1", "note": "[Compound 1446, Hept-6-enoic acid {4-[2-(2-hex-5-enyl-4-oxo-1,3,8-triaza-spiro[4.5]dec-1-ene-8-sulfonyl)-ethyl]-3,5-dimethyl-phenyl}-methyl-amide]", "cAMP production activity (%)": 88},
      {"smiles": "Cc1cc(C(=O)N(C)CCO)ccc1/C=C/S(=O)(=O)N1CCC2(CC1)N=C(c1cccc(C(F)(F)F)c1)NC2=O", "note": "[Compound 214, N-(2-hydroxy-ethyl)-3,N-dimethyl-4-{(E)-2-[4-oxo-2-(3-trifluoromethyl-phenyl)-1,3,8-triaza-spiro[4.5]dec-1-ene-8-sulfonyl]-vinyl}-benzamide]", "cAMP production activity (%)": 84},
      {"smiles": "CC(=O)Nc1ccc(CCS(=O)(=O)N2CCC3(CC2)N=C(c2cccc(C(F)(F)F)c2)NC3=O)c(C)c1", "note": "[Compound 298, N-(3-methyl-4-{2-[4-oxo-2-(3-trifluoromethyl-phenyl)-1,3,8-triaza-spiro[4.5]dec-1-ene-8-sulfonyl]-ethyl}-phenyl)-acetamide]", "cAMP production activity (%)": 63},
      {"smiles": "CCCCCCCCCC1=NC2(CCN(S(=O)(=O)CCc3c(C)cc(N4C(=O)CNC4=O)cc3C)CC2)C(=O)N1", "note": "[Compound 832, 3-{3,5-dimethyl-4-[2-(2-nonyl-4-oxo-1,3,8-triaza-spiro[4.5]dec-1-ene-8-sulfonyl)-ethyl]-phenyl}-imidazolidine-2,4-dione]", "cAMP production activity (%)": 84},
      {"smiles": "CCCCCCCCCC1=NC2(CCN(S(=O)(=O)/C=C/c3c(C)cc(C(=O)O)cc3C)CC2)C(=O)N1", "note": "[Compound 628, 3,5-dimethyl-4-[(E)-2-(2-nonyl-4-oxo-1,3,8-triaza-spiro[4.5]dec-1-ene-8-sulfonyl)-vinyl]-benzoic acid]", "cAMP production activity (%)": 48},
      {"smiles": "Cc1cc(C(=O)N(C)C)ccc1CCS(=O)(=O)N1CCC2(CC1)N=C(C1CCC(C(F)(F)F)CC1)NC2=O", "note": "(stereo not drawn) [Compound 104, 3,N,N-trimethyl-4-{2-[4-oxo-2-(4-trifluoromethyl-cyclohexyl)-1,3,8-triaza-spiro[4.5]dec-1-ene-8-sulfonyl]-ethyl}-benzamide]", "cAMP production activity (%)": 79},
      {"smiles": "O=C1NC(c2ccccc2-c2ccccc2)=NC12CCN(S(=O)(=O)c1cccc(Cl)c1)CC2", "note": "[Compound 10, 2-biphenyl-2-yl-8-(3-chloro-benzenesulfonyl)-1,3,8-triaza-spiro[4.5]dec-1-en-4-one]", "cAMP production activity (%)": 2.4},
      {"smiles": "CCCCCC[C@@H]1CCC[C@H](C2=NC3(CCN(S(=O)(=O)CCc4c(C)cc(N(C)C(N)=O)cc4C)CC3)C(=O)N2)C1", "note": "[Compound 1143, 1-(4-{2-[2-((1S,3R)-3-Hexyl-cyclohexyl)-4-oxo-1,3,8-triaza-spiro[4.5]dec-1-ene-8-sulfonyl]-ethyl}-3,5-dimethyl-phenyl)-1-methyl-urea]", "cAMP production activity (%)": 78},
      {"smiles": "Cc1cc(N(CCO)C(=O)N(C)CCO)cc(C)c1/C=C/S(=O)(=O)N1CCC2(CC1)N=C(c1cccc(OC(F)(F)F)c1)NC2=O", "note": "[Compound 533, 1-(3,5-dimethyl-4-{(E)-2-[4-oxo-2-(3-trifluoromethoxy-phenyl)-1,3,8-triaza-spiro[4.5]dec-1-ene-8-sulfonyl]-vinyl}-phenyl)-1,3-bis-(2-hydroxy-ethyl)-3-methyl-urea]", "cAMP production activity (%)": 69}
    ]}
  ]
}
